“And” between values parts separate entries of the source, which are not always exact repeats. Equal values may be shown once. Read-outs that look alike come from different tables or passages of the source.

The subject of one data set is HIV-1 virions. Description: Infectivity of HIV-1 virions from treated cells on naive CEM-SS cells. The class given is cell-based. On the procedure:
In concert with p24 analysis, cell supernatants collected from cells exposed to test compounds at 8, 16, or 24 hours post-infection were used to infect naïve CEM-SS cells. Cell viability was measured six days post-infection as a measure of virus infectivity (Table 5).

For data set [1], the system named is HIV-1RF. Description: Post-exposure assay: compounds added after HIV-1 infection of CEM-SS cells, cell viability. Type of data set: cell-based. Conditions: Human immunodeficiency virus 1, CEM-SS. On the procedure: (§1) The effects of pre- and post-infection PI treatment on CEM-SS toxicity were assessed. […] Cell toxicity was monitored six days after infection using XTT reagent. In the post-exposure assay, test compounds were added to cells 0, 24, 48, or 72 h after HIV-1 infection, and cell viability was measured six days post-infection.

Data set [2] deals with CEM-SS cells. Kind of data set: Post-exposure assay: toxicity in CEM-SS cells. On the procedure: as §1
Data set [3] concerns CEM-SS cells. Description: Pre-exposure assay: toxicity in CEM-SS cells. On the procedure: as §1
The subject of data set [4] is HIV-1RF. Kind of data set: p24 levels after single high MOI HIV-1RF infection of CEM-SS cells, time of addition. The class given is cell-based. Conditions: 1 μM. On the procedure:
The cytoprotective effect against HIV of the PEG-protease inhibitor conjugates was evaluated during a single round of high multiplicity of infection (“MOI”) HIV-1 infection in CEM-SS cells. CEM-SS cells were incubated for one hour with a single high MOI dose of HIV-1RF. Cells were washed to remove free virus, then test compounds were added to cells at 0, 2, 4, 6, 8, 16, or 24 hours after HIV-1 infection. To monitor viral replication, cell supernatants were analyzed at 30 hours post-infection for levels of the HIV capsid protein p24 (FIG. 1). […] Nevirapine inhibited viral replication at 1 μM when added to cells up to four hours post-infection, and at 10 μM when added up to eight hours post-infection.

The test system of data set [5] is HIV-1RF. Kind of data set: Pre-exposure assay: CEM-SS cells treated before HIV-1RF infection, cell viability. Type of data set: cell-based. Conditions: for EC50: Human immunodeficiency virus 1, CEM-SS. As to the method:
as §1

Data set [6] is described as follows: Metabolic stability in cryopreserved human hepatocytes. Conditions: human, hepatocytes. On the procedure: (§2) Metabolism of PI conjugates was investigated by monitoring the levels of unmetabolized parent compound following incubation with cryopreserved human or monkey hepatocytes. The use of whole hepatocytes rather than microsomes requires that the drugs cross the cell membrane to interact with intracellularly-localized metabolic enzymes, and thus provides the most relevant in vitro system for understanding overall metabolic stability of these compounds.
(§3) Test compounds (0.1 μM or 3 μM, as indicated) are incubated with cryopreserved human hepatocytes at a cell density of 0.5×10^6 viable cells/mL. […] Duplicate samples (50 μL) are removed from the incubation mixture at various timepoints up to four hours (for 0.1 μM test compound concentration), or one or two hours (for 3 μM test compound concentration), and the reaction is quenched by the addition of methanol containing internal standard (100 μL). The samples are centrifuged (2500 rpm at 4° C. for 20 min), and the supernatants at each time point pooled for cassette analysis by LC-MS/MS.

The target of data set [7] is recombinant HIV-1 protease (Human immunodeficiency virus type 1 group M subtype B (isolate HXB2) (HIV-1), UniProt P04585). Kind of data set: Enzyme inhibition of purified HIV-1 protease (SensoLyte 520 HIV-Protease Assay Kit). Type of data set: biochemical. Conditions: read-out: IC50 ± SD. On the procedure: Protease inhibitors (PI) are used to treat HIV infection by preventing viral assembly and maturation through the inhibition of HIV-1 protease activity. Biochemical assays were performed to evaluate the potential of PEG-PI conjugates to inhibit HIV-1 protease activity, relative to their respective PI parent molecules. Activity assays were performed at using the SensoLyte 520 HIV-Protease Assay Kit (Anaspec Inc., San Jose, Calif.) and recombinant HIV-1 protease. Protease activity was monitored by the formation of a fluorescent reporter product generated during HIV-1 protease-mediated digestion of a quenched, fluorimetric substrate containing the p17/p24 Pr^gag cleavage site.

A short description of data set [8]: Microsomal protein binding by equilibrium dialysis. Type of data set: in vitro ADME. The settings on record: human liver microsomes, read-out: Microsomal Protein Binding Fu ± SD. An outline of the steps: (§4)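 Compound at 3 μM final in buffer with or without human liver microsomes, dialysed to equilibrium at 37 °C. Both sides quantified by LC-MS/MS to derive fraction unbound (Fu).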
(In general: In equilibrium dialysis free small molecules cross a membrane that holds back macromolecules.)

The test system of data set [9] is CEM-SS cells. The settings on record: absence of viral infection. On the procedure: To evaluate whether conjugated protease inhibitors retain the ability to protect against HIV-1 infection, CEM-SS cells infected with the RF strain of HIV-1 were treated with test compounds for six days, and then cell viability was monitored using the tetrazolium dye XTT. […] A value for Therapeutic Index (TI) was calculated as TC50/EC50.

A short description of data set [10]: Plasma protein binding by equilibrium dialysis, human plasma. Type of data set: in vitro ADME. The settings on record: human plasma, 5 μM, fraction unbound; read-out: Plasma Protein Binding Fu ± SD. An outline of the steps:
(§5)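 5 μM cpd in plasma vs buffer, 0.5% DMSO; equilibrium dialysis 2 h, 37 °C; both chambers by LC-MS/MS.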

Another data set has as its system HIV-1 HT/92/599. Kind of data set: HIV-1 reverse transcriptase activity after infection of fresh human PBMCs. The settings on record: read-out: PBMC/HIV-1HT/92/599 EC50 ± SD; seven days, reverse transcriptase activity. The class given is cell-based. As to the method: (§6) Fresh human peripheral blood mononuclear cells (PBMCs) obtained from a commercial source were purified following centrifugation using a Ficoll-Hypaque density gradient. Viable cells were induced to proliferate in the presence of PHA-P and recombinant human IL-2 for 72 hours. […] Cell supernatant containing HIV-1 viral was incubated for 90 minutes at 37° C. with a reaction mixture containing EGTA, Triton X-100, Tris (pH 7.4), DTT, MgCl2, poly rA, oligo dT, and tritiated thymidine triphosphate (TTP). Incorporation of TTP into DNA was monitored by spotting the reaction mixture onto a DEAE filter mat, followed by washes with 5% phosphate buffer, distilled water, and 70% ethanol, and subsequent drying of the mat. Radioactivity was measured using a Wallac 1450 Microbeta Trilux liquid scintillation counter using Opti-Fluor O. Test compound-associated toxicity was measured in PBMCs cultured for seven days in the absence of virus using XTT reagent. […] TI was calculated as TC50/EC50.

The next data set deals with human hepatocytes. Kind of data set: Metabolic stability in cryopreserved human hepatocytes. Conditions: human hepatocytes, 3 uM, incubated up to one hour. As to the method: as §2, §3
Data set [11] is described as follows: Metabolic stability in human liver microsomes. Conditions: human liver microsomes, 3 μM. On the procedure: The human liver microsome-mediated biotransformation of PEG-PI compounds was determined by monitoring the loss of the substrate as a function of time. […] Test compounds (3 μM final concentration) were preincubated with pooled (male and female) human liver microsomes (0.5 mg/mL final protein concentration) in buffer (0.1M phosphate buffer, pH 7.4) at 37° C. Reactions were initiated by the addition of NADPH (1 mM final concentration), and allowed to continue for 0, 5, 15, 30, and 45 minutes. […] Sample supernatants are analyzed by liquid chromatography-tandem mass spectrometry.
(Liver microsomes are vesicles of endoplasmic reticulum, rich in cytochrome P450 enzymes.)

Another data set concerns the target CYP2D6 (Homo sapiens (Human), UniProt P10635). Description: Metabolic stability in CYP2D6-expressing Bactosomes. The settings on record: 5 μM. The class given is in vitro ADME. On the procedure:
(§7) Compounds were evaluated for their propensity to act as substrates of individual human cytochrome P450 enzymes using a bacterial membrane preparation co-expressing human NADPH-cytochrome P450 reductase with either human CYP3A4 or CYP2D6 (Bactosomes™ Cypex, Ltd., Dundee, UK). In vitro metabolism studies using Bactosomes™ expressing individual human CYP isoforms monitor the extent to which a test compound is metabolized by a single CYP450 enzyme and allow identification of the CYP isoforms that may be responsible for the metabolism of a test compound. Timecourse analyses of test molecules (5 μM) with CYP2D6- or CYP3A4-expressing Bactosomes™ (100 pmol/mL) are performed in buffer (0.1 M phosphate, pH 7.4) in a final reaction volume of 25 μL. […] Reactions are terminated by the addition of methanol (50 μL) containing internal standard at 0, 5, 15, 30, and 45 minutes.

The next data set deals with PBMCs. Kind of data set: Toxicity in PBMCs cultured without virus (XTT). On the procedure:
as §6, with “mat.” for “mat. Radioactivity was measured using a Wallac 1450 Microbeta Trilux liquid scintillation counter using Opti-Fluor O. Test compound-associated toxicity was measured in PBMCs cultured for seven days in the absence of virus using XTT reagent.”
(Formazan colour is commonly taken as a measure of viable cells.)

Data set [12] deals with human liver microsomal proteins. Kind of data set: Microsomal protein binding by equilibrium dialysis. The class given is in vitro ADME. Conditions: human liver microsomes, 3 μM, fraction unbound. Summed up: as §4
The target in data set [13] is T1, CYP3A4 (Homo sapiens (Human), UniProt P08684). Kind of data set: Metabolic stability in CYP3A4-expressing Bactosomes. The class given is in vitro ADME. The settings on record: 5 μM. As to the method:
as §7

The subject of another data set is human plasma proteins. Kind of data set: Plasma protein binding by equilibrium dialysis, human plasma. Type of data set: in vitro ADME. The settings on record: human plasma, 5 μM, fraction unbound. An outline of the steps: as §5
Data set [14] deals with T1, CYP3A4. Description: CYP450 inhibition in human liver microsomes: CYP3A4.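 Note: incubation at 37 °C started by adding 1 mM NADPH, with formation of the probe metabolite measured via LC-MS/MS or fluorescent detection.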

T1 sequence (P08684 whole entry): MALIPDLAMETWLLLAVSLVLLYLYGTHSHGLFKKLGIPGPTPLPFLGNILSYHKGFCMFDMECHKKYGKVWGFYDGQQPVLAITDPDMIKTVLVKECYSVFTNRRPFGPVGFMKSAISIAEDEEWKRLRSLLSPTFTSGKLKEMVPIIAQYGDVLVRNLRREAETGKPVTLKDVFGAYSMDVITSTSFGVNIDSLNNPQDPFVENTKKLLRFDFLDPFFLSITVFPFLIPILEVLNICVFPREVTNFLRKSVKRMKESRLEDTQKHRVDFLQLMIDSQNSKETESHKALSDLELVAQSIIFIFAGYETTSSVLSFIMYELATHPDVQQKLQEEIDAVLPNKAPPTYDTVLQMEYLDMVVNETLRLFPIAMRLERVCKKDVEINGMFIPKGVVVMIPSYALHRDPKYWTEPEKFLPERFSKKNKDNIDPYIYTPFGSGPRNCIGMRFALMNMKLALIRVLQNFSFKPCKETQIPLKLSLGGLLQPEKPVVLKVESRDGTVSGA
Sequence of CYP2D6 (P10635 whole entry, canonical isoform): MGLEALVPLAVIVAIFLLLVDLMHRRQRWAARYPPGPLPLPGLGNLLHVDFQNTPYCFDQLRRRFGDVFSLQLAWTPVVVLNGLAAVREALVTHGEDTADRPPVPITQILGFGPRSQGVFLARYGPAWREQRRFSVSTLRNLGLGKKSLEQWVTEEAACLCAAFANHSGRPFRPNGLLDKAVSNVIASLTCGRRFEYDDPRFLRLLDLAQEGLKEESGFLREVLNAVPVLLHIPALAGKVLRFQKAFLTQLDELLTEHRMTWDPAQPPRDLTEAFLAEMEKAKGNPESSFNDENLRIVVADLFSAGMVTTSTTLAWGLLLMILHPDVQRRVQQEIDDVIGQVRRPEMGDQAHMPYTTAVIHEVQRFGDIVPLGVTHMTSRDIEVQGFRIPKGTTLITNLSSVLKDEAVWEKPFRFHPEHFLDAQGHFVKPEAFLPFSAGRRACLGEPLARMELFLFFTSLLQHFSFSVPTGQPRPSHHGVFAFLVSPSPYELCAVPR

With `Cc1ccnc2c1NC(=O)c1cccnc1N2C1CC1` [Nevirapine], the “Percent Infectivity of HIV-1 Virions in comparison to virus-alone control” value was 100.0% with HIV-1 virions (0.1 μM, added 8 h post-infection); 117.0% with HIV-1 virions (0.1 μM, added 16 h post-infection); 128.0% with HIV-1 virions (0.1 μM, added 24 h post-infection); 100.0% in the data set with HIV-1 virions (1 μM, added 8 h post-infection); 100.0% in the data set on HIV-1 virions (1 μM, added 16 h post-infection); 10.0% in the data set with HIV-1 virions (10 μM, added 8 h post-infection). Also, the “Percent Infectivity of HIV-1 Virions in comparison to virus-alone control” value in the data set with HIV-1 virions (10 μM, added 24 h post-infection) was 177.8%. In addition, the EC50 worked out at 5 nM in the data set with HIV-1RF [1] (0 h); 10 nM with HIV-1RF [1] (24 h); 50 nM with HIV-1RF [1] (48 h); 200 nM with HIV-1RF [1] (72 h); 470 nM in the data set on HIV-1RF [5] (2 h); 200 nM with HIV-1RF [5] (8 h). In the data set with HIV-1RF [5] (24 h), the EC50 was found to be 640 nM. The TC50 in the data set on CEM-SS cells [2] (drug addition 0 h post-infection), with CEM-SS cells [2] (drug addition 24 h post-infection), in the data set on CEM-SS cells [2] (drug addition 48 h post-infection), with CEM-SS cells [2] (drug addition 72 h post-infection), in the data set with CEM-SS cells [3] (exposure 2 h pre-infection) and in the data set with CEM-SS cells [3] (exposure 8 h pre-infection) was over 1000 nM each time. This molecule had a TC50 in the data set on CEM-SS cells [3] (exposure 24 h pre-infection) of over 1000 nM. In addition, the “time of addition up to which antiviral activity (reduced p24) was seen” value in the data set on HIV-1RF [4] was “up to four”. In the data set with HIV-1RF [5] (in words), the “EC50 values after pre-treatment of cells” value was “sub-micromolar”.

For orientation: hepatocyte CLint means the rate of metabolic loss divided by the concentration. Read a high hepatocyte CLint as faster metabolism. As usually defined, the IC50 is the midpoint of a concentration-inhibition curve. For the molecule `CCC[C@@]1(CCc2ccccc2)CC(O)=C([C@H](CC)c2cccc(NS(=O)(=O)c3ccc(C(F)(F)F)cn3)c2)C(=O)O1` [Tipranavir, reference compound], the intrinsic metabolic clearance (hepatocyte CLint) at 3 μM in data set [6] is 0.111 ± 0.643 µL/min/1e6 cells. Moreover, in data set [7], the concentration for half-maximal inhibition (IC50) was 7.2 nM and 1.96 nM. Moreover, the fraction unbound at 3 μM in data set [8] turned out to be 0.302 ± 0.0853. Also, in the data set on CEM-SS cells [9], the “CEM-SS TC50 ± SD” value was 30600 nM and 40700 nM. Also, the fraction unbound at 2 h, 5 μM in data set [10] is 0.00866 ± 0.0013.

As to `COCCOCCOCCOC(=O)N[C@@H](C(=O)NC(Cc1ccccc1)[C@@H](O)CN(Cc1ccc(-c2ccccn2)cc1)NC(=O)[C@H](NC(=O)OCCOCCOCCOC)C(C)(C)C)C(C)(C)C` (stereo partly drawn) [di-mPEG3-Atazanavir], the EC50 with HIV-1 HT/92/599 was determined as 390 ± 60 nM. Further, the “CLint ± SEM” value with human hepatocytes is 3.46 ± 0.896 μL/min/10^6 cells; in data set [11], 190 ± 18.3 μL/min/mg protein. This molecule also gave a t1/2 in data set [11] of 7.31 min. In addition, the “2D6 t1/2 ± SEM” value at CYP2D6 turned out to be 2.18 ± 0.808 h. In addition, the “PBMC TC50 ± SD” value in the data set on PBMCs came to 146000 nM. In data set [12], the “Microsomal Protein Binding Fu ± SD” value is “highly unbound”. Moreover, on CYP3A4 [13], the “3A4 t1/2 ± SEM” value came out at 1.6 ± 0.457 h. Further, the “Plasma Protein Binding Fu ± SD” value with human plasma proteins amounted to 0.376 ± 0.00639. Moreover, the IC50 at CYP3A4 [14] (read-out: CYP3A4 IC50 Midazolam, probe substrate midazolam) is over 50000 nM; at CYP3A4 [14] (read-out: CYP3A4 IC50 Testosterone, probe substrate testosterone) it was 23400 nM.

The record behind these values is patent US10806794B2, “Protease inhibitors having enhanced features” (priority 2008, dated 2020).
